Read-outs that look alike come from different tables or passages of the source.
Assays:
[1] = test system: MCF-7 (human breast cancer cells); test: MTT cancer cell growth inhibition; format: cell-based; conditions: Homo sapiens, MCF7, 72 h
How it was run: (§1)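 MTT viability, 570 nm, GI50. Cells 1500/well; compound 72 h at final 10^−5–10^−10 M in triplicate.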

[2] = test system: HCC827 (human non-small cell lung cancer cells); test: MTT cancer cell growth inhibition; format: cell-based; conditions: Homo sapiens, HCC827, 72 h, MTT, 72 hours incubation, HCC827 cells; read-out: GI50 HCC827
How it was run: as §1

[3] = test system: K562 (human leukemia cells); test: MTT cancer cell growth inhibition; format: cell-based; conditions: Homo sapiens, K562, 72 h, MTT, 72 hours incubation, K562 cells; read-out: GI50 K562
How it was run: as §1

[4] = test system: Huh-7 (human hepatoma cells); test: MTT cancer cell growth inhibition; format: cell-based; conditions: Homo sapiens, Huh-7, 72 h, MTT, 72 hours incubation, Huh-7 cells; read-out: GI50 Huh-7
How it was run: as §1

[5] = test system: BGC-823 (human gastric cancer cells); test: MTT cancer cell growth inhibition; format: cell-based; conditions: Homo sapiens, BGC-823, 72 h, MTT
How it was run: as §1

[6] = test system: H1975 (non-small cell lung adenocarcinoma); test: MTT cancer cell growth inhibition; format: cell-based; conditions: Homo sapiens, NCI-H1975, 72 h, MTT, 72 hours incubation, H1975 cells; read-out: GI50 H1975
How it was run: as §1

[7] = test system: N-87 (human gastric cancer cells); test: MTT cancer cell growth inhibition; format: cell-based; conditions: Homo sapiens, 72 h, MTT, 72 hours incubation, N-87 cells; read-out: GI50 N-87
How it was run: as §1

[8] = test system: MOLT-4 (human acute lymphoblastic leukemia cells); test: MTT cancer cell growth inhibition; format: cell-based; conditions: Homo sapiens, MOLT-4, 72 h, MTT
How it was run: as §1

[9] = test system: MDA-MB-231 (breast cancer cells); test: MTT cancer cell growth inhibition; format: cell-based; conditions: Homo sapiens, MDA-MB-231, 72 h, read-out: GI50 MDA-MB-231, MTT, 72 hours incubation, MDA-MB-231 cells
How it was run: as §1

[10] = test system: A549 (human lung cancer cells); test: MTT cancer cell growth inhibition; format: cell-based; conditions: Homo sapiens, A549, 72 h, MTT
How it was run: as §1

[11] = test system: PANC-1 (Pac-1, human pancreatic cancer cells); test: MTT cancer cell growth inhibition; format: cell-based; conditions: Homo sapiens, PANC-1, 72 h, MTT
How it was run: as §1

[12] = test system: HT1080 (human fibrosarcoma cells); test: MTT cancer cell growth inhibition; format: cell-based; conditions: Homo sapiens, HT-1080, 72 h, MTT
How it was run: as §1

[13] = test system: SGC-7901 (human gastric cancer cells); test: MTT cancer cell growth inhibition; format: cell-based; conditions: Homo sapiens, SGC-7901, 72 h, MTT, 72 hours incubation, SGC-7901 cells; read-out: GI50 SGC-7901
How it was run: as §1

[14] = test system: KBM5-T315I (human chronic myelogenous leukemia); test: MTT cancer cell growth inhibition; format: cell-based; conditions: Homo sapiens, 72 h, MTT, 72 hours incubation, KBM5-T315I cells; read-out: GI50 KBM5-T315I
How it was run: as §1

[15] = test system: lncap (prostate cancer cells); test: MTT cancer cell growth inhibition; format: cell-based; conditions: Homo sapiens, LNCaP, 72 h, MTT
How it was run: as §1

[16] = test system: Hela (human cervical cancer cells); test: MTT cancer cell growth inhibition; format: cell-based; conditions: Homo sapiens, HeLa, 72 h, MTT
How it was run: as §1

[17] = test system: KBM-5 (human chronic myelogenous leukemia); test: MTT cancer cell growth inhibition; format: cell-based; conditions: Homo sapiens, KBM5, 72 h, MTT, 72 hours incubation, KBM-5 cells; read-out: GI50 KBM-5
How it was run: as §1

[18] = test system: Bel-7402 (human hepatoma cells); test: MTT cancer cell growth inhibition; format: cell-based; conditions: Homo sapiens, Bel-7402, 72 h, MTT, 72 hours incubation, Bel-7402 cells; read-out: GI50 Bel-7402
How it was run: as §1

[19] = test system: DU145 (human prostate cancer cells); test: MTT cancer cell growth inhibition; format: cell-based; conditions: Homo sapiens, DU-145, 72 h, MTT
How it was run: as §1

[20] = test system: U937 (human leukemia cells); test: MTT cancer cell growth inhibition; format: cell-based; conditions: Homo sapiens, U-937, 72 h, MTT
How it was run: as §1

HDAC2 = HDAC2 (Homo sapiens, UniProt Q92769); test: HDAC biochemical activity measurement (fluorescent substrate deacetylation);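 also: HDAC2 enzyme with an acetyl-lysine fluorescent substrate, then developer added, fluorescence read at excitation 360 nm and emission 460 nm, inhibition measured across several compound concentrations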; conditions: 37° C. 30 minutes
HDAC3 = HDAC3 (Homo sapiens, UniProt O15379); test: as above;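 also: fluorogenic acetyl-lysine substrate (20 µM) deacetylated by HDAC3, then developer added for 15 min at room temperature, release of fluorophore read at excitation 360 nm, emission 460 nm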
HDAC1 = HDAC1 (Homo sapiens, UniProt Q13547); test: as above;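 also: fluorogenic acetyl-lysine substrate (20 µM) deacetylated by HDAC1, then developer releases fluorophore read at 360 nm excitation and 460 nm emission, inhibitor incubated 30 min at 37 °C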
[21] = MCF-7 cells, 72 hours incubation, read-out: GI50 MCF
[22] = BGC-823 cells, 72 hours incubation, read-out: GI50 BG
[23] = MOLT-4 cells, 72 hours incubation, read-out: GI50 Mol
[24] = A549 cells, 72 hours incubation, read-out: GI50 A54
[25] = PANC-1 cells, 72 hours incubation, read-out: GI50 PAN
[26] = HT1080 cells, 72 hours incubation, read-out: GI50 HT1
[27] = lncap cells, 72 hours incubation, read-out: GI50 lnca
[28] = Hela cells, 72 hours incubation, read-out: GI50 Hela
[29] = DU145 cells, 72 hours incubation, read-out: GI50 Du1
[30] = U937 cells, 72 hours incubation, read-out: GI50 U93
[31] = HDAC1, 37° C. 30 minutes, read-out: IC50 HDAC1
[32] = 72 hours incubation, read-out: GI50 MCF
[33] = 72 hours incubation, read-out: GI50 BG
[34] = 72 hours incubation, read-out: GI50 Mol
[35] = 72 hours incubation, read-out: GI50 A54
[36] = 72 hours incubation, read-out: GI50 PAN
[37] = 72 hours incubation, read-out: GI50 HT1
[38] = 72 hours incubation, read-out: GI50 lnca
[39] = 72 hours incubation, read-out: GI50 Hela
[40] = 72 hours incubation, read-out: GI50 Du1
[41] = 72 hours incubation, read-out: GI50 U93
[42] = read-out: IC50 HDAC3, HDAC3, 37° C. 30 minutes
[43] = Table 3, column C, read-out: IC50 HDAC1, C (six-membered ring with substituents)

HDAC1, sequence (Q13547 whole entry, species assumed): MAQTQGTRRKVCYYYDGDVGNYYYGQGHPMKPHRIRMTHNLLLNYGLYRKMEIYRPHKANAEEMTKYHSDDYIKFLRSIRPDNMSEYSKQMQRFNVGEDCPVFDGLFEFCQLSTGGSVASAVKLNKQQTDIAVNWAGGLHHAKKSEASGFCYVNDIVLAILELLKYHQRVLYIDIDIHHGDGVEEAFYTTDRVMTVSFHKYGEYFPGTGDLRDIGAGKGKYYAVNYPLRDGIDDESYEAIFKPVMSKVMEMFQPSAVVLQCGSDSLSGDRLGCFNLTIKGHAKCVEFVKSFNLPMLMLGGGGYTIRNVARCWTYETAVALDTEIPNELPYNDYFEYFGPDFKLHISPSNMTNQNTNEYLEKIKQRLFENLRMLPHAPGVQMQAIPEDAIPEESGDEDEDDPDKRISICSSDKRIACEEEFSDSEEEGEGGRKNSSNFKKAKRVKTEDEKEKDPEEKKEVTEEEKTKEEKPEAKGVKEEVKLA
HDAC2, sequence (Q92769 whole entry, species assumed): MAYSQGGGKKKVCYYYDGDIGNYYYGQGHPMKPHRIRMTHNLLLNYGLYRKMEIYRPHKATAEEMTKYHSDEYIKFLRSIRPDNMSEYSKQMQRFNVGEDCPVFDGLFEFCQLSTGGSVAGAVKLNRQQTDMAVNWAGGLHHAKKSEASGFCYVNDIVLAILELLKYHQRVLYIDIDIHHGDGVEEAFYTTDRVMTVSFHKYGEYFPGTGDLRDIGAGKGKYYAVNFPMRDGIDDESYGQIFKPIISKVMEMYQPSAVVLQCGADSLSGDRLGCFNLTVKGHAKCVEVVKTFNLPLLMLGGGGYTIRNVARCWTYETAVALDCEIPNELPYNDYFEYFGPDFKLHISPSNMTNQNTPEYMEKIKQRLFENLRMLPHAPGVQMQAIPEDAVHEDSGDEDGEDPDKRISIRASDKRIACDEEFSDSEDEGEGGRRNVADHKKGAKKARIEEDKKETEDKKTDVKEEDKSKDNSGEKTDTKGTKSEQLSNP
HDAC3, sequence (O15379 whole entry, species assumed): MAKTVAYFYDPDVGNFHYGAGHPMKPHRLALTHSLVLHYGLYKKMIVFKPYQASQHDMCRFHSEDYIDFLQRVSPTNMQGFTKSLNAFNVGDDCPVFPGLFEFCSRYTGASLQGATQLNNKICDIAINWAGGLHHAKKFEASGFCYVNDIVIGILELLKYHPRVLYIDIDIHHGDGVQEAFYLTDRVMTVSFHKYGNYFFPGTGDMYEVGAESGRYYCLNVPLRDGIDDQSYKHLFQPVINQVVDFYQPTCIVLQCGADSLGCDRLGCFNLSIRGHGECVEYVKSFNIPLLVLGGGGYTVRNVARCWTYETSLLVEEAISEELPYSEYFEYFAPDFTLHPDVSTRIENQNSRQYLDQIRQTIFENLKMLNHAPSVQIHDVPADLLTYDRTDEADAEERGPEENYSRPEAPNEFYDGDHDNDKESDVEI
HDAC3, sequence (Q9Y618 395-489 partner limits assumed, species assumed): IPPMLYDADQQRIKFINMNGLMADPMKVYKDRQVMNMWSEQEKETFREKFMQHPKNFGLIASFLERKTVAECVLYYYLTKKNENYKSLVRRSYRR

GI50 [2] [nM] | GI50 [3] [nM] | GI50 [4] [nM] | GI50 [5, 22] [nM] | GI50 [6] [nM] | GI50 [7] [nM] | GI50 [8, 23] [nM] | GI50 [9] [nM] | GI50 [10, 24] [nM] | GI50 [11, 25] [nM] | GI50 [12, 26] [nM] | GI50 [13] [nM] | GI50 [14] [nM] | GI50 [15, 27] [nM] | GI50 [16, 28] [nM] | GI50 [17] [nM] | GI50 [18] [nM] | GI50 [20, 30] [nM] | IC50 (HDAC2) [nM] | IC50 (HDAC1; [31]) [nM] | SMILES | also measured
28 | 37 | 57 | 50 | 26 | 83 | 80 | 78 | 30 | 50 | 80 | 45 | 26 | 50 | 50 | 23 | 28 | 30 | 41 | 61 | C/C=C1\NC(=O)c2nc(ccc2SC)CNC(=O)C[C@@H](/C=C/CCSC(=O)CCCCCCC)OC(=O)[C@H](C(C)C)NC1=O [Compound 147] | GI50 [1, 21]: 40 nM; GI50 [19, 29]: 40 nM; IC50 (HDAC3): 51 nM
81 | 36 | 29 | – | 52 | 55 | – | 29 | – | – | – | 59 | 73 | – | – | 89 | 81 | – | 34 | 13 | C/C=C1\NC(=O)c2cc(F)cc(n2)CNC(=O)C[C@@H](/C=C/CCSC(=O)CCCCCCC)OC(=O)[C@H](CC)NC1=O [Compound 55] | GI50 [1, 32]: 70 nM; GI50 [5, 33]: 50 nM; GI50 [8, 34]: 20 nM; GI50 [10, 35]: 50 nM; GI50 [11, 36]: 80 nM; GI50 [12, 37]: 80 nM; GI50 [15, 38]: 20 nM; GI50 [16, 39]: 80 nM; GI50 [19, 40]: 30 nM; GI50 [20, 41]: 50 nM; IC50 (HDAC3; [42]): 35 nM; IC50 (HDAC1; [43]): 13 nM
82 | 38 | 37 | – | 39 | 30 | – | 37 | – | – | – | 35 | 22 | – | – | 82 | 82 | – | 56 | 12 | C/C=C1\NC(=O)c2nc(ccc2F)CNC(=O)C[C@@H](/C=C/CCSC(=O)CCCCCCC)OC(=O)[C@H](C(C)C)NC1=O [Compound 30] | GI50 [1, 32]: 20 nM; GI50 [5, 33]: 30 nM; GI50 [8, 34]: 30 nM; GI50 [10, 35]: 30 nM; GI50 [11, 36]: 80 nM; GI50 [12, 37]: 80 nM; GI50 [15, 38]: 30 nM; GI50 [16, 39]: 80 nM; GI50 [19, 40]: 30 nM; GI50 [20, 41]: 30 nM; IC50 (HDAC3; [42]): 34 nM; IC50 (HDAC1; [43]): 12 nM
25 | 71 | 15 | 30 | 54 | 73 | 80 | 51 | 60 | 60 | 40 | 19 | 28 | 100 | 30 | 61 | 65 | 50 | 51 | 73 | C/C=C1\NC(=O)c2ccc(SC)c(n2)CNC(=O)C[C@@H](/C=C/CCSC(C)=O)OC(=O)[C@H](CC)NC1=O [Compound 179] | GI50 [1, 21]: 60 nM; GI50 [19, 29]: 30 nM; IC50 (HDAC3): 34 nM
43 | 32 | 61 | – | 42 | 43 | – | 79 | – | – | – | 53 | 28 | – | – | 81 | 92 | – | 61 | 176 | C/C=C1\NC(=O)c2cccc(n2)CNC(=O)C[C@@H](/C=C/CCSC(C)=O)OC(=O)[C@H](Cc2cccc3ccccc23)NC1=O [Compound 17] | GI50 [1, 32]: 22000 nM; GI50 [5, 33]: 19700 nM; GI50 [8, 34]: 920 nM; GI50 [10, 35]: 1930 nM; GI50 [11, 36]: 23300 nM; GI50 [12, 37]: 970 nM; GI50 [15, 38]: 530 nM; GI50 [16, 39]: 11000 nM; GI50 [19, 40]: 5220 nM; GI50 [20, 41]: 20100 nM; IC50 (HDAC3; [42]): 69 nM; IC50 (HDAC1; Table 3, read-out: IC50 HDAC1, D (non-substituent)): 176 nM
66 | 47 | 61 | 190 | 56 | 96 | 30 | 37 | 10 | 110 | 10 | 24 | 83 | 10 | 70 | 71 | 79 | 30 | 21 | 45 | C/C=C1\NC(=O)c2cccc(n2)CNC(=O)C[C@@H](/C=C/CCSC(=O)CCCCCCC)OC(=O)[C@H](CCSC)NC1=O [Compound 240] | GI50 ([1]; 72 hours, present invention, read-out: GI50 MCF7, a): 1 nM; GI50 ([5]; 72 hours, present invention, read-out: GI50 BGC823, a): 110 nM; GI50 ([8]; 72 hours, present invention, read-out: GI50 Molt-4, a): 18 nM; GI50 ([10]; 72 hours, present invention, read-out: GI50 A549, a): 36 nM; GI50 ([11]; 72 hours, present invention, read-out: GI50 PANC-1, a): 190 nM; GI50 ([12]; 72 hours, present invention, read-out: GI50 HT1080, a): 33 nM; GI50 ([15]; 72 hours, present invention, read-out: GI50 lncap, a): 70 nM; GI50 ([16]; 72 hours, present invention, read-out: GI50 Hela, a): 18 nM; GI50 ([19]; 72 hours, present invention, read-out: GI50 Du145, a): 4 nM; GI50 ([20]; 72 hours, present invention, read-out: GI50 U937, a): 12 nM; IC50 (HDAC3): 53 nM; IC50 (HDAC1; Table 2, read-out: IC50 HDAC1, a (compounds of the present invention)): < 50 nM

— patent publication US10065990B2, “Cyclic peptide compound, and preparation method, pharmaceutical composition and use thereof” (HANGZHOU GUANYU BIO-MEDICAL CO., LTD, priority 2013, dated 2018)
